Structures can show the parent of a compound that is named as a salt. Where two headings read alike, the source gives them in different places.
Assays:
[1] = biological target: T1, wild-type (WT) KRAS (aa1-185) (Homo sapiens, UniProt P01116); assay: KRAS Surface Plasma Resonance (SPR) binding assay, WT KRAS; conditions: SPR at 10 °C, geometric mean when tested more than once
T1 construct: wild-type (WT) KRAS (aa1-185)
Source text: (§1) No additional regeneration was used.
(§2) Compound dissociation was monitored for at least 3600 seconds. […] No additional regeneration was used.

[2] = biological target: T2, WT HRAS (aa2-184) (Homo sapiens, UniProt P01112); assay: SPR binding assay, WT HRAS; conditions: SPR at 10 °C, geometric mean when tested more than once
T2 construct: WT HRAS (aa2-184)
T2 sequence (P01112 2-184): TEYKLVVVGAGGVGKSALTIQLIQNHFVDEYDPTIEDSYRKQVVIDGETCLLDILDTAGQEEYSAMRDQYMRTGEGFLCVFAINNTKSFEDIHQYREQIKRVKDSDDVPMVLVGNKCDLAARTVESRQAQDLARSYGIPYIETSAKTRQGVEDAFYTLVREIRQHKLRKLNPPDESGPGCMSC
Source text: as §1, §2

[3] = biological target: T3, WT NRAS (aa2-185) (Homo sapiens, UniProt P01111); assay: SPR binding assay, WT NRAS; conditions: SPR at 10 °C, geometric mean when tested more than once
T3 construct: WT NRAS (aa2-185)
T3 sequence (P01111 2-185): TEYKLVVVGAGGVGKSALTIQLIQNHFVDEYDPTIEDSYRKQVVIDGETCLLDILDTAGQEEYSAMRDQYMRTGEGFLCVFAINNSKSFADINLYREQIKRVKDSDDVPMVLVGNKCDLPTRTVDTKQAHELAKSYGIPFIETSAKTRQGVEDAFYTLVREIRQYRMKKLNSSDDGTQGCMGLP
Source text: as §1, §2

[4] = biological target: T4, G12D KRAS (aa1-185) (Homo sapiens, UniProt P01116, G12D); assay: biochemical;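 further: surface plasmon resonance at 10 °C, KRAS captured on a streptavidin chip in GDP-containing buffer, compound dilution series injected, blank streptavidin surface as reference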
T4 sequence (P01116 1-185 isoform P01116-2 G12D): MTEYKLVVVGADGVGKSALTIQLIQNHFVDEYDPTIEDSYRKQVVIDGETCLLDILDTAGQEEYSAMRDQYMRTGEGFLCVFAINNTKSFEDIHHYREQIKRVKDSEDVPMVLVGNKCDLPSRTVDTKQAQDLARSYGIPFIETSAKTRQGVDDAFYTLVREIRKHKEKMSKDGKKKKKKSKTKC
Procedure: (§3) SPR assay was used to measure the kinetic binding constant (KD) of Examples of the present invention.
(§4) The binding affinity and kinetics of Examples of the present invention were measured by Surface Plasmon Resonance (SPR) using Biacore 8K or 8K+ (Cytiva, Marlborough, MA) instruments. Recombinant, C-terminal site-specific biotinylated, wild-type (WT) KRAS (aa1-185), G12D KRAS (aa1-185), G12C KRAS (aa2-184), G12V KRAS (aa2-184), WT HRAS (aa2-184) and WT NRAS (aa2-185) proteins purified in presence of 1 μM GDP were used in these experiments. Binding measurements were performed parallelly in sets of either WT/G12D/G12C/G12V KRAS or WT K/H/N RAS proteins.
(§5) Biacore instrument was desorbed and docked with a Series S Sensor Chip SA. The proteins were diluted to 50 μg/mL with the assay buffer (50 mM HEPES, 150 mM NaCl, 10 μM GDP, 5 mM MgCl2, 0.5 mM TCEP, 5% glycerol, 0.02% Tween-20, 2% DMSO, pH 7.2) and immobilized at a flow rate of 3 μL/min at 10° C. with a contact time of 15 min. to capture ~3000-4000 RUs of proteins on the surface. The functionalized surface was then equilibrated with assay buffer for approximately 1 hour. Un-functionalized SA surfaces with no immobilized protein served as reference for binding kinetic analysis. Compound binding kinetics were measured in either multi-cycle or single-cycle kinetic format.
(§6) A 2-fold, 10-point serial dilution of test compounds was set-up in a 96-well microplate (Greiner; Cat #650101) with a top concentration of either 10 μM or 100 μM. Binding kinetics was measured at 10° C. by injecting serial dilution of compounds onto both reference and RAS immobilized channels at a flow rate of 100 μL/min and association time of 90 seconds. Compound dissociation was monitored for at least 400 seconds during each cycle. No additional regeneration was used. DMSO calibration curve was obtained before and after compound analysis by injecting 0-4% of DMSO in assay buffer. A suitable compound with known affinity and kinetics was tested once in every experiment as a positive control to assess activity of the captured protein on the surface.
(§7) A 3-fold, 6-point serial dilution of compounds was set-up in a deep 96-well microplate (Greiner Bio; Cat #780201) with the highest concentration of 1 μM (concentration range: 0.004-1 μM). Binding kinetics was measured at 10° C. by injecting serial dilutions of compounds in increasing order onto reference as well as RAS immobilized channels at a flow rate of 100 μL/min and association time of 120 seconds. Compound dissociation was monitored for at least 3600 seconds. Two buffer blanks were also run in a single-cycle kinetics format before the compound run for double referencing. No additional regeneration was used. DMSO calibration curve was obtained before and after compound analysis by injecting 0-4% of DMSO in the assay buffer. A suitable compound with known affinity and kinetics was tested once in every experiment as a positive control to assess activity of the captured protein on the surface.
(§8) Both MCK and SCK data were processed and analyzed using Biacore Insight evaluation software (Cytiva, Marlborough, MA)). […] The adequateness of the fit was judged by c^2 values and the randomness of residue distribution.
(§9) A geometric mean of binding constant KD was provided when an Example was tested more than once (n is testing replicate number).

[5] = biological target: T5, G12C KRAS (aa2-184) (Homo sapiens, UniProt P01116, G12C); assay: biochemical
T5 sequence (P01116 2-184 isoform P01116-2 G12C): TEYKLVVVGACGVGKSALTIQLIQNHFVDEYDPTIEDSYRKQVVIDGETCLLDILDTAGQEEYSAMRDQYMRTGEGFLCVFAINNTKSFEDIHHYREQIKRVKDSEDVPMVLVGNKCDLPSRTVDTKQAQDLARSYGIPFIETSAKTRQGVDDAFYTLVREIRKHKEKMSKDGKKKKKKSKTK
Procedure: as §3, §4, §5, §6, §7, §8, §9

[6] = biological target: T6, G12V KRAS (aa2-184) (Homo sapiens, UniProt P01116, G12V); assay: biochemical
T6 sequence (P01116 2-184 isoform P01116-2 G12V): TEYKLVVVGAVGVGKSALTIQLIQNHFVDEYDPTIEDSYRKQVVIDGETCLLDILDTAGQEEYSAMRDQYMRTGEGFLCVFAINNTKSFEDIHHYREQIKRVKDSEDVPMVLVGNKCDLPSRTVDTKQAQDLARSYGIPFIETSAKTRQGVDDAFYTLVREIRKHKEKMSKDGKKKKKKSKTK
Procedure: as §3, §4, §5, §6, §7, §8, §9

[7] = Mouse PK study, unbound plasma exposure of Example 33 after oral dosing of female NSG mice; format: in vivo; conditions: for Cav, ss, u / Cmax, u: unbound Example 33 in plasma, single oral dose 100 mg (active)/kg
Procedure: FIG. 1 provides mouse PK study results showing unbound plasma concentrations of Example 33 in female NSG mouse plasma after oral dosing of female NSG Mice at 100 mg/kg (n=3, mean+/−SD). The solution of Example 33 was prepared using a Pluronic-based formulation [2.5% (w/v) Pluronic F-68 (Poloxamer 188)], and the suspension arms of both Example 33 and Example 34 were prepared using a 0.5% (w/v) methylcellulose formulation.
The solution formulation of Example 33 was an aqueous solution with 2.5% (w/v) Pluronic F-68 (Poloxamer 188). The amorphous suspension formulations of Example 33 and Example 34 were made using in 0.5% (w/v) methylcellulose in water.

[8] = biological target: T4, G12D KRAS (aa1-185)
Procedure: as §3, §4, §5, §6, §7, §8, §9

[9] = biological target: T5, G12C KRAS (aa2-184)
Procedure: as §3, §4, §5, §6, §7, §8, §9

[10] = biological target: T6, G12V KRAS (aa2-184)
Procedure: as §3, §4, §5, §6, §7, §8, §9

[11] = suspension, relative to Example 33 suspension, 100 mg (active)/kg oral
[12] = suspension (0.5% methylcellulose)

T1 sequence (P01116 1-185 isoform P01116-2): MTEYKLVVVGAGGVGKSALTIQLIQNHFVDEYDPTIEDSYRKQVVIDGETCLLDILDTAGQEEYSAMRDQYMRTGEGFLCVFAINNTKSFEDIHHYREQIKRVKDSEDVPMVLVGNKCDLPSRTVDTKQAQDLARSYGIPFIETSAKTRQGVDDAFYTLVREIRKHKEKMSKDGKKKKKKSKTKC

C#Cc1cccc2cc(O)cc(-c3ncc4c(N5CC[C@H](CC#N)C5)nc(OC[C@@]56CCCN5C[C@H](F)C6)nc4c3F)c12 [Example 3, {(3R)-1-[7-(8-ethynyl-3-hydroxynaphthalen-1-yl)-8-fluoro-2-{[(2R,7aS)-2-fluorotetrahydro-1H-pyrrolizin-7a(5H)-yl]methoxy}pyrido[4,3-d]pyrimidin-4-yl]pyrrolidin-3-yl}acetonitrile]
Kd [1]: 4.79 nM
Kd [2]: > 10000 nM
Kd [3]: > 10000 nM
Kd [4]: 12.3 nM
Kd [5]: 11 nM
Kd [6]: 10.8 nM

C#Cc1c(F)ccc2cc(O)cc(-c3ncc4c(N5C[C@@H]6C[C@H](C5)[C@H](O)C6)nc(OC[C@@]56CCCN5C[C@H](F)C6)nc4c3F)c12 [Example 10, (1R,5R,6R)-3-[7-(8-ethynyl-7-fluoro-3-hydroxynaphthalen-1-yl)-8-fluoro-2-{[(2R,7aS)-2-fluorotetrahydro-1H-pyrrolizin-7a(5H)-yl]methoxy}pyrido[4,3-d]pyrimidin-4-yl]-3-azabicyclo[3.2.1]octan-6-ol]
Kd [1]: 0.03 nM
Kd [2]: 71.5 nM
Kd [3]: 346 nM
Kd [4]: 0.297 nM
Kd [5]: 0.681 nM
Kd [6]: 4.86 nM

N#CC[C@@H]1CCCN(c2nc(OC[C@@]34CCCN3C[C@H](F)C4)nc3c(F)c(-c4cc(O)cc5ccc(F)c(F)c45)ncc23)C1 [Example 12, {(3S)-1-[7-(7,8-difluoro-3-hydroxynaphthalen-1-yl)-8-fluoro-2-{[(2R,7aS)-2-fluorotetrahydro-1H-pyrrolizin-7a(5H)-yl]methoxy}pyrido[4,3-d]pyrimidin-4-yl]piperidin-3-yl}acetonitrile]
Kd [1]: 0.022 nM
Kd [2]: 606 nM
Kd [3]: 1000 nM
Kd [4]: 0.045 nM
Kd [5]: 1.13 nM
Kd [6]: 0.117 nM

CC(=O)N1CCN(c2nc(OC[C@@]34CCCN3C[C@H](F)C4)nc3c(F)c(-c4cc(O)cc5ccc(F)c(F)c45)ncc23)C[C@@H]1CC#N [Example 13, {(2S)-1-acetyl-4-[7-(7,8-difluoro-3-hydroxynaphthalen-1-yl)-8-fluoro-2-{[(2R,7aS)-2-fluorotetrahydro-1H-pyrrolizin-7a(5H)-yl]methoxy}pyrido[4,3-d]pyrimidin-4-yl]piperazin-2-yl}acetonitrile]
Kd [1]: 1.25 nM
Kd [2]: 8920 nM
Kd [3]: > 10000 nM
Kd [4]: 59.8 nM
Kd [5]: 7.56 nM
Kd [6]: 10.4 nM

Oc1cc(-c2ncc3c(N4C[C@@H]5C[C@H](C4)[C@H](O)C5)nc(OC[C@@]45CCCN4C[C@H](F)C5)nc3c2F)c2c(F)c(F)ccc2c1 [Example 14, (1R,5R,6R)-3-[7-(7,8-difluoro-3-hydroxynaphthalen-1-yl)-8-fluoro-2-{[(2R,7aS)-2-fluorotetrahydro-1H-pyrrolizin-7a(5H)-yl]methoxy}pyrido[4,3-d]pyrimidin-4-yl]-3-azabicyclo[3.2.1]octan-6-ol]
Kd [1]: 0.006 nM
Kd [2]: 198 nM
Kd [3]: 656 nM
Kd [4]: 0.092 nM
Kd [5]: 0.263 nM
Kd [6]: 0.461 nM

Oc1cc(-c2ncc3c(N4C[C@H]5CC[C@@H](C4)O5)nc(OC[C@@]45CCCN4C[C@H](F)C5)nc3c2F)c2c(F)c(F)ccc2c1 [Example 16, 5,6-difluoro-4-(8-fluoro-2-{[(2R,7aS)-2-fluorotetrahydro-1H-pyrrolizin-7a(5H)-yl]methoxy}-4-[(1R,5S)-8-oxa-3-azabicyclo[3.2.1]octan-3-yl]pyrido[4,3-d]pyrimidin-7-yl)naphthalen-2-ol, acetic acid salt]
Kd [1]: 5.82 nM
Kd [2]: > 10000 nM
Kd [3]: > 10000 nM
Kd [4]: 23.8 nM
Kd [5]: 8.57 nM
Kd [6]: 5.73 nM

Oc1cc(-c2ncc3c(N4C[C@@H]5C[C@H](C4)[C@H](O)C5)nc(OC[C@@]45CCCN4C[C@H](F)C5)nc3c2F)c2c(Cl)cccc2c1 [Example 20, (1R,5R,6R)-3-[7-(8-chloro-3-hydroxynaphthalen-1-yl)-8-fluoro-2-{[(2R,7aS)-2-fluorotetrahydro-1H-pyrrolizin-7a(5H)-yl]methoxy}pyrido[4,3-d]pyrimidin-4-yl]-3-azabicyclo[3.2.1]octan-6-ol]
Kd [1]: 0.075 nM
Kd [2]: 725 nM
Kd [3]: 1000 nM
Kd [4]: 0.138 nM
Kd [5]: 0.629 nM
Kd [6]: 0.098 nM

C#Cc1c(F)c(F)cc2cc(O)cc(-c3nc4c5c(nc(OC[C@@]67CCCN6C[C@H](F)C7)nc5c3F)N3CCCC[C@H]3CO4)c12 [Example 33, 5-ethynyl-6,7-difluoro-4-[(8aS)-4-fluoro-2-{[(2R,7aS)-2-fluorotetrahydro-1H-pyrrolizin-7a(5H)-yl]methoxy}-8,8a,9,10,11,12-hexahydro-7-oxa-1,3,6,12a-tetraazabenzo[4,5]cyclohepta[1,2,3-de]naphthalen-5-yl]naphthalen-2-ol]
Kd [1]: 0.023 nM
Cav Fold Increase [7, 11]: 1
Cmax Fold increase [7, 11]: 1
Cav, ss, u ([7]; solution (2.5% Pluronic F-68)): 0.30 nM
Cmax, u ([7]; solution (2.5% Pluronic F-68)): 0.60 nM
Cav, ss, u [7, 12]: 0.37 nM
Cmax, u [7, 12]: 0.48 nM
Kd [8]: 0.019 nM
Kd [9]: 0.019 nM
Kd [10]: 0.096 nM
